Earlier results in patent publication US20030008923A1, “Antineoplastic combinations” (Wyeth, priority 2001, published 2003).

How the values were obtained:
[1] = system: human tumor xenografts
[2] = system: human glioblastoma cell line; details: human glioblastoma cell line in vitro
[3] = system: histologically diverse tumor cells
[4] = biological target: mTOR (Homo sapiens, UniProt P42345+P62942); details: growth factor stimulated cells, Western blot

Compound	activity against human tumor xenografts of diverse histological types ([1]; nude mice)	growth of several human pancreatic tumors ([1]; nude mice)	activity in orthotopic glioma model ([1]; orthotopic glioma model in nude mice)	growth factor (platelet-derived)-induced stimulation [2]	growth of tumor cells in vitro ([3]; histologically diverse tumor cells)	cell cycle effect ([3]; in vitro)	phosphorylation of serine 389 of p70s6 kinase [4]
CO[C@H]1C[C@@H]2CC[C@@H](C)[C@@](O)(O2)C(=O)C(=O)N2CCCC[C@H]2C(=O)O[C@H]([C@H](C)C[C@@H]2CC[C@@H](OC(=O)C(C)(CO)CO)[C@H](OC)C2)CC(=O)[C@H](C)/C=C(\C)[C@@H](O)[C@@H](OC)C(=O)[C@H](C)C[C@H](C)/C=C/C=C/C=C/1C [CCI-779, Rapamycin 42-ester with 3-hydroxy-2-(hydroxymethyl)-2-methylpropionic acid]	has activity	inhibited	active	markedly suppressed	inhibit the growth	arrested cells in the G1 phase	–
CO[C@H]1C[C@@H]2CC[C@@H](C)[C@@](O)(O2)C(=O)C(=O)N2CCCC[C@H]2C(=O)O[C@H]([C@H](C)C[C@@H]2CC[C@@H](O)[C@H](OC)C2)CC(=O)[C@H](C)/C=C(\C)[C@@H](O)[C@@H](OC)C(=O)[C@H](C)C[C@H](C)/C=C/C=C/C=C/1C [rapamycin]	–	–	–	–	–	–	completely blocks
